According to patent US12673041B2, “4-aminobut-2-enamide derivatives and salt thereof” (TAIHO PHARMACEUTICAL CO., LTD., priority 2019, dated 2026):
pIC50: −log10 of the molar value.

Assays:
[1] = target: Gppcp-bound recombinant K-Ras4B G12C mutant protein (amino acids 1-169, C51S/C80L/C118S) (Homo sapiens, UniProt P01116, C118S/C51S/C80L/G12C); test: KRASG12C binding assay (LC-MS compound binding rate); details: test compound final concentration 0.5 μM, 25° C., 1 hour
In short: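 Gppcp-bound K-Ras4B G12C (aa 1-169, C51S/C80L/C118S) at 50 nM in 1×TBS, 0.1 mM TCEP, 0.25 mM MgCl2, 50 μM Gppcp was incubated 1 hour at 25° C with compound at 0.5 μM final. Intact-protein LC-MS gave binding rate as single-adduct signal over total KRAS signal, graded A (≥80%) to E (<20%).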

[2] = test system: MIA PaCa-2 cells; test: Growth inhibition activity on KRAS-G12C mutant cell line (MIA PaCa-2); type: cell-based; details: Homo sapiens, 72 h; MIA PaCa-2, 3-day culture, CellTiter-Glo 3D
In short: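 KRAS-G12C human pancreatic MIA PaCa-2 cells in RPMI1640 + 10% FBS, seeded in U-bottom plates and grown 1 day, then exposed to compound (0.2% DMSO final) for 3 days at 37 °C, 5% CO2. Viability by CellTiter-Glo 3D luminescence; IC50 from inhibition relative to untreated wells.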

SMILES | binding rate [1] | pIC50 [2]
C=CC(=O)N1CCN(c2ncnc3c(F)c(-c4c(O)cccc4F)c(Cl)cc23)CC1 [ARS-1620, reference compound] | E (a binding rate of less than 20% is rated “E”) | 
CCc1nc2cc(-c3cccc(NC(=O)c4ccc(NC(=O)/C=C/CN[C@H]5CC[C@H](OC)CC5)c(C#N)c4)c3)c(C(F)(F)F)cc2n1C [Example 1, 3-cyano-N-(3-(2-ethyl-1-methyl-6-(trifluoromethyl)-1H-benzo[d]imidazol-5-yl)phenyl)-4-((E)-4-(((1r, 4r)-4-methoxycyclohexyl)amino)but-2-enamido)benzamide] | A (A binding rate of 80% or more is rated “A”) | 
CO[C@H]1CC[C@H](NC/C=C/C(=O)Nc2ccc(C(=O)c3ccc4c(-c5cc6ncn(C)c6cc5C)cccn34)cc2C#N)CC1 [Example 4, (E)-N-(2-cyano-4-(8-(1,6-dimethyl-1H-benzo[d]imidazol-5-yl)indolizine-3-carbonyl)phenyl)-4-(((1r,4r)-4-methoxycyclohexyl)amino)but-2-enamide] | A (A binding rate of 80% or more is rated “A”) | 6.85
